# According to ChEMBL document CHEMBL5042473 (J Med Chem, 2022):
# pIC50: −log10 of the molar value.
# Tested on: not listed separately
# Experiment: Metabolic stability in human liver microsomes assessed as parent compound remaining incubated for 120 mins
# Type: ADME, Microsome
# Details: read-out: Stability
row,remaining at 2 h [%],SMILES
1,71,O=C(NCCc1c[nH]c2ccccc12)c1ccc2c(c1)C(=O)c1ccc(Nc3ccc(F)cc3F)cc1CC2
2,95,NC(=O)CCNC(=O)c1ccc2c(c1)C(=O)c1ccc(Nc3ccc(F)cc3F)cc1CC2
3,95,O=C(NCCc1c[nH]cn1)c1ccc2c(c1)C(=O)c1ccc(Nc3ccc(F)cc3F)cc1CC2
4,13,O=C(NO)c1ccc2c(c1)C(=O)c1ccc(Nc3ccc(F)cc3F)cc1CC2
5,0,COC(=O)CNC(=O)c1ccc2c(c1)C(=O)c1ccc(Nc3ccc(F)cc3F)cc1CC2

# Molecular target: Mitogen-activated protein kinase 14 (Homo sapiens, UniProt Q16539)
# Experiment: Inhibition of human p38 MAPK alpha incubated for 1 hr by photometric method
# Details: not given
# Sequence of Mitogen-activated protein kinase 14 (Q16539 whole entry): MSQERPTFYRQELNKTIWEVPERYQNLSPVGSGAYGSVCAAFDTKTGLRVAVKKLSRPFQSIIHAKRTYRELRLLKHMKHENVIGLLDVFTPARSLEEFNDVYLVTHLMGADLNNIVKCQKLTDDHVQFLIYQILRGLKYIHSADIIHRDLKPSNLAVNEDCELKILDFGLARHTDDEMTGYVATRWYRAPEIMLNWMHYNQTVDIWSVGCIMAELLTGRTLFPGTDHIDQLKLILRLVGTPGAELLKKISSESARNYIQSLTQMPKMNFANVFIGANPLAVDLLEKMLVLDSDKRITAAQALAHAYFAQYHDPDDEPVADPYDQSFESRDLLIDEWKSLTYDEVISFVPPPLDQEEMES
row,pIC50,SMILES
1,8.92,COC(=O)CC[C@H](NC(=O)c1ccc2c(c1)C(=O)c1ccc(Nc3ccc(F)cc3F)cc1CC2)C(=O)OC
2,7.55,O=C(NCCc1c[nH]c2ccccc12)c1ccc2c(c1)C(=O)c1ccc(Nc3ccc(F)cc3F)cc1CC2
3,7.74,Nc1ccccc1Nc1ccc2c(c1)CCc1ccc(C(=O)NCCN3CCNCC3)cc1C2=O
4,7.30,O=C(NCCCc1ccccc1)c1ccc2c(c1)C(=O)c1ccc(Nc3ccc(F)cc3F)cc1CC2
5,6.41,CN(CCc1ccccc1)C(=O)c1ccc2c(c1)C(=O)c1ccc(Nc3ccc(F)cc3F)cc1CC2
6,8.11,O=C(NCCc1ccc(O)cc1)c1ccc2c(c1)C(=O)c1ccc(Nc3ccc(F)cc3F)cc1CC2
7,7.92,COC(=O)[C@@H](N)CCCCNC(=O)c1ccc2c(c1)C(=O)c1ccc(Nc3ccccc3N)cc1CC2
8,8.21,NC(=O)CCNC(=O)c1ccc2c(c1)C(=O)c1ccc(Nc3ccc(F)cc3F)cc1CC2
9,7.66,CC(NC(=O)c1ccc2c(c1)C(=O)c1ccc(Nc3ccc(F)cc3F)cc1CC2)C1CCCCC1 (centres undefined)
10,8.46,O=C(NCC(F)(F)F)c1ccc2c(c1)C(=O)c1ccc(Nc3ccc(F)cc3F)cc1CC2
11,7.68,O=C(NCCc1ccc(F)cc1)c1ccc2c(c1)C(=O)c1ccc(Nc3ccc(F)cc3F)cc1CC2
12,7.77,Nc1ccccc1Nc1ccc2c(c1)CCc1ccc(C(=O)NCCCC[C@H](N)C(=O)O)cc1C2=O
13,8.68,COC(=O)[C@@H](N)CCCCNC(=O)c1ccc2c(c1)C(=O)c1ccc(Nc3ccc(F)cc3F)cc1CC2
14,7.57,Nc1ccccc1Nc1ccc2c(c1)CCc1ccc(C(=O)N[C@@H](CCC(=O)O)C(=O)O)cc1C2=O
15,8.25,O=C(NCCc1c[nH]cn1)c1ccc2c(c1)C(=O)c1ccc(Nc3ccc(F)cc3F)cc1CC2
16,8.21,NC(=O)c1ccc2c(c1)C(=O)c1ccc(Nc3ccccc3N)cc1CC2
17,8.28,NCCNC(=O)c1ccc2c(c1)C(=O)c1ccc(Nc3ccccc3N)cc1CC2

row,pIC50,SMILES
1,8.28,O=C(NO)c1ccc2c(c1)C(=O)c1ccc(Nc3ccc(F)cc3F)cc1CC2
2,7.82,Nc1ccccc1Nc1ccc2c(c1)CCc1ccc(C(=O)NC(CO)CO)cc1C2=O
3,8.19,O=C(NCCc1cccs1)c1ccc2c(c1)C(=O)c1ccc(Nc3ccc(F)cc3F)cc1CC2
4,8.72,CC(C)(C)OC(=O)N1CCN(CCNC(=O)c2ccc3c(c2)C(=O)c2ccc(Nc4ccccc4N)cc2CC3)CC1
5,7.82,Nc1ccccc1Nc1ccc2c(c1)CCc1ccc(C(=O)NCC(O)CO)cc1C2=O (centres undefined)
6,7.92,COC(=O)CNC(=O)c1ccc2c(c1)C(=O)c1ccc(Nc3ccc(F)cc3F)cc1CC2
7,< 6.00,CCCCCCCCCCCCCCCCNC(=O)c1ccc2c(c1)C(=O)c1ccc(Nc3ccc(F)cc3F)cc1CC2
8,8.16,COC(=O)[C@H](CCSC)NC(=O)c1ccc2c(c1)C(=O)c1ccc(Nc3ccc(F)cc3F)cc1CC2
9,7.02,CN(C)C(=O)c1ccc2c(c1)C(=O)c1ccc(Nc3ccc(F)cc3F)cc1CC2
10,7.59,Nc1ccccc1Nc1ccc2c(c1)CCc1ccc(C(=O)NCCc3cnc[nH]3)cc1C2=O
11,7.70,Nc1ccccc1Nc1ccc2c(c1)CCc1ccc(C(=O)NCCc3ccccc3)cc1C2=O
12,6.41,CCCCCCCCNC(=O)c1ccc2c(c1)C(=O)c1ccc(Nc3ccc(F)cc3F)cc1CC2
13,6.92,O=C1c2ccc(Nc3ccc(F)cc3F)cc2CCc2ccc(C(=O)N3CCCCC3)cc21
14,7.68,O=C(NCCc1ccccc1)c1ccc2c(c1)C(=O)c1ccc(Nc3ccc(F)cc3F)cc1CC2
15,7.82,COC(=O)[C@H](Cc1ccccc1)NC(=O)c1ccc2c(c1)C(=O)c1ccc(Nc3ccc(F)cc3F)cc1CC2
16,8.62,CC(C)(C)OC(=O)N1CCN(CCNC(=O)c2ccc3c(c2)C(=O)c2ccc(Nc4ccc(F)cc4F)cc2CC3)CC1
17,7.77,COC(=O)CC[C@H](NC(=O)c1ccc2c(c1)C(=O)c1ccc(Nc3ccccc3N)cc1CC2)C(=O)OC
